Experiment: molar heat capacity at constant pressure; wn = mass fraction of the nth substance listed
Conditions: Small (less than 1 g) adiabatic calorimetry

CCCCn1cc[n+](C)c1.[Br-] [1-butyl-3-methylimidazolium bromide] + O
Crystal
Conditions | molar heat capacity at constant pressure [J/K/mol]
257.1 K, w2 = 0.0169 | 211.52
257.12 K, w2 = 0.00482 | 207.32
257.24 K, w2 = 0.0495 | 210.08
257.33 K, w2 = 0.0051 | 208.6
257.89 K, w2 = 0.00482 | 208.45
258.27 K, w2 = 0.0051 | 209.35
258.32 K, w2 = 0.00482 | 208.23
258.68 K, w2 = 0.00482 | 208.41
258.78 K, w2 = 0.0169 | 213.4
259.16 K, w2 = 0.0169 | 213.8
259.51 K, w2 = 0.0495 | 213.48
259.61 K, w2 = 0.0051 | 210.47
259.93 K, w2 = 0.0051 | 210.82
259.98 K, w2 = 0.00482 | 210.49
260.24 K, w2 = 0.00482 | 209.97
260.65 K, w2 = 0.00482 | 210.2
260.87 K, w2 = 0.0169 | 215.76
260.94 K, w2 = 0.0051 | 211.8
261.22 K, w2 = 0.0169 | 216.33
261.77 K, w2 = 0.0495 | 217.08
262.06 K, w2 = 0.00482 | 211.93
262.28 K, w2 = 0.0051 | 212.88
262.52 K, w2 = 0.0051 | 213.06
262.95 K, w2 = 0.0169 | 218.39
262.98 K, w2 = 0.00482 | 212.09
263.28 K, w2 = 0.0169 | 218.78
263.78 K, w2 = 0.0051 | 214.35
264.01 K, w2 = 0.0495 | 220.81
264.14 K, w2 = 0.00482 | 213.82
265.04 K, w2 = 0.0169 | 221.03
265.12 K, w2 = 0.0051 | 215.36
265.24 K, w2 = 0.0051 | 215.65
265.32 K, w2 = 0.00482 | 214.05
265.34 K, w2 = 0.0169 | 221.47
266.23 K, w2 = 0.0495 | 224.56
266.24 K, w2 = 0.00482 | 216.31
266.58 K, w2 = 0.0051 | 216.86
267.13 K, w2 = 0.0169 | 223.7
267.4 K, w2 = 0.0169 | 224.14
267.66 K, w2 = 0.00482 | 216.04
267.71 K, w2 = 0.0051 | 217.69
268.43 K, w2 = 0.0495 | 228.48
269.22 K, w2 = 0.0169 | 226.58
269.45 K, w2 = 0.0169 | 226.98
270 K, w2 = 0.00482 | 218.06
270.31 K, w2 = 0.0051 | 220.13
270.61 K, w2 = 0.0495 | 232.41
271.3 K, w2 = 0.0169 | 229.49
271.51 K, w2 = 0.0169 | 229.82
272.34 K, w2 = 0.00482 | 220.16
272.91 K, w2 = 0.0051 | 222.62
273.18 K, w2 = 0.0495 | 242
273.57 K, w2 = 0.0169 | 232.77
275.36 K, w2 = 0.00482 | 223.11
275.51 K, w2 = 0.0051 | 225.17
275.62 K, w2 = 0.0169 | 235.94
276.24 K, w2 = 0.0495 | 247.28
277.2 K, w2 = 0.00482 | 225.01
278.11 K, w2 = 0.0051 | 227.74
279.23 K, w2 = 0.0169 | 242.23
279.26 K, w2 = 0.0495 | 254.65
279.32 K, w2 = 0.00482 | 227.27
279.78 K, w2 = 0.00482 | 229.54
280.71 K, w2 = 0.0051 | 230.48
281.42 K, w2 = 0.00482 | 229.46
282.24 K, w2 = 0.0495 | 262.55
283.31 K, w2 = 0.0051 | 233.23
283.5 K, w2 = 0.00482 | 230.68
284.39 K, w2 = 0.0169 | 251.43
285.17 K, w2 = 0.0495 | 271.18
285.58 K, w2 = 0.00482 | 233.7
285.91 K, w2 = 0.0051 | 236.24
287.66 K, w2 = 0.00482 | 235.67
288.14 K, w2 = 0.0495 | 280.22
288.51 K, w2 = 0.0051 | 239.25
289.53 K, w2 = 0.0169 | 262.01
289.74 K, w2 = 0.00482 | 238.04
290.97 K, w2 = 0.0495 | 290.4
291.11 K, w2 = 0.0051 | 242.54
291.83 K, w2 = 0.00482 | 240.73
293.7 K, w2 = 0.0051 | 246.11
293.74 K, w2 = 0.0495 | 300.57
293.9 K, w2 = 0.00482 | 243.2
294.65 K, w2 = 0.0169 | 274.42
295.05 K, w2 = 0.00482 | 246.53
295.98 K, w2 = 0.00482 | 245.88
296.3 K, w2 = 0.0051 | 249.8
296.46 K, w2 = 0.0495 | 310.98
298.06 K, w2 = 0.00482 | 248.83
298.89 K, w2 = 0.0051 | 253.84
299.11 K, w2 = 0.0495 | 321.36
299.76 K, w2 = 0.0169 | 289.83
300.14 K, w2 = 0.00482 | 252.27
301.49 K, w2 = 0.0051 | 258.28
301.7 K, w2 = 0.0495 | 332.6
303.76 K, w2 = 0.00482 | 260.04
304.07 K, w2 = 0.0051 | 263.07
304.21 K, w2 = 0.0495 | 344.68
306.66 K, w2 = 0.0051 | 268.79
306.66 K, w2 = 0.0495 | 358.21
309.04 K, w2 = 0.0495 | 371.9
309.23 K, w2 = 0.0051 | 274.95
311.81 K, w2 = 0.0051 | 281.91
314.38 K, w2 = 0.0051 | 289.81

101 kPa, Liquid
Conditions | molar heat capacity at constant pressure [J/K/mol]
258.42 K, w2 = 0.0495 | 201.89
260.51 K, w2 = 0.0495 | 202.44
262.59 K, w2 = 0.0495 | 203.15
264.68 K, w2 = 0.0495 | 203.66
266.76 K, w2 = 0.0495 | 204.28
268.85 K, w2 = 0.0495 | 204.83
271.36 K, w2 = 0.0495 | 205.69
274.29 K, w2 = 0.0495 | 206.48
277.23 K, w2 = 0.0495 | 207.26
280.16 K, w2 = 0.0495 | 208.13
283.1 K, w2 = 0.0495 | 209.06
286.03 K, w2 = 0.0495 | 209.95
288.97 K, w2 = 0.0495 | 210.91
291.91 K, w2 = 0.0495 | 211.72
294.84 K, w2 = 0.0495 | 212.72
297.78 K, w2 = 0.0495 | 213.47
300.72 K, w2 = 0.0495 | 214.41
303.65 K, w2 = 0.0495 | 215.41
306.59 K, w2 = 0.0495 | 216.44
309.53 K, w2 = 0.0495 | 217.39
312.47 K, w2 = 0.0495 | 218.35
315.41 K, w2 = 0.0495 | 219.31
321.27 K, w2 = 0.0495 | 221.21
330.56 K, w2 = 0.0495 | 224.12
333.86 K, w2 = 0.0495 | 225.96
337.13 K, w2 = 0.0495 | 227.18
340.39 K, w2 = 0.0495 | 228.38
343.64 K, w2 = 0.0495 | 229.51
346.87 K, w2 = 0.0495 | 230.63
350.08 K, w2 = 0.0495 | 232.05
352.35 K, w2 = 0.0169 | 289.81
353.26 K, w2 = 0.0495 | 232.65
355.87 K, w2 = 0.0051 | 320.97
356.41 K, w2 = 0.0495 | 233.93
357.85 K, w2 = 0.00482 | 320.3
358.14 K, w2 = 0.0169 | 293.37
358.58 K, w2 = 0.0051 | 322.63
361.53 K, w2 = 0.0495 | 236.39
363.43 K, w2 = 0.0169 | 295.6
364.71 K, w2 = 0.0495 | 237.6
367.1 K, w2 = 0.00482 | 323.63
367.89 K, w2 = 0.0495 | 238.53

Source: the NIST ThermoML archive (doi:10.1016/j.jct.2006.05.008)
